Measured values reported in patent US10301288B2, “Kinase inhibitors” (Topivert Pharma Limited, priority 2013, dated 2019).
pIC50: −log10 of the molar value.

Columns and labels:
[1] = Hepatic microsomal stability, Cynomolgus macaque; format: in vitro ADME; settings: pooled liver microsomes, read-out: Mean intrinsic clearance
Experimental: (§1) • Microsomal stability assays were performed with incubations of test compounds at 0.1 μM (n=2, final DMSO concentration 0.25%), and carried out using pooled human, […], rat and Cynomolgus macaque hepatic microsomes from Xenotech (Lots 1210153, 0810143 and 1110042, respectively) at 0.25 mg protein/mL in the presence of cofactor, NADPH. The incubations were performed at 37° C. with 100 μL aliquots taken from the incubation, at 0, 2, 5, 10 and 20 minutes (and, in the case of Cynomolgus macaque hepatic microsomes, 40 minutes) and reactions terminated by addition of 100 μL of acetonitrile containing carbamazepine as analytical internal standard. […] Half-life values were calculated from the relationship T1/2 (min)=−0.693/λ • where λ was the slope of the Ln concentration vs time curve. • The in vitro intrinsic clearance, Clint (mL/min/kg), was calculated and scaled to hepatic extraction ratios using the following scaling parameters and formulae.
(§2) Formulae Clint(tissue clearance) mL/min/kg=[0.693/t½ (min)]×[1/microsomal protein concentration mg/mL]×[mg microsomes/g liver]×[g liver/kg body weight] […] Half-life values were calculated from the relationship T1/2 (min)=−0.693/λ • where λ was the slope of the Ln concentration vs time curve. • Standard compounds testosterone, midazolam and 4-methylumbelliferone are included in the assay design.

β-catenin = test: (m) Accumulation of β catenin in d-U937 cells; format: cell-based, human; settings: Reference Compound at 1 μg/mL defined as 100%
Procedure, shortened: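 PMA-differentiated (100 ng/mL, 48–72 hr) human U937 macrophage-type cells treated with test compound or vehicle for 18 hr. β-catenin measured by in-cell ELISA (anti-β-catenin, HRP secondary, TMB, OD450–655). Signal corrected for cell number by dividing by crystal violet OD595.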

B-Raf (V600e) = B-Raf (V600e) (Homo sapiens (Human), UniProt P15056, V600E); test: KINOMEscan enzyme binding assay, B-Raf (V600e)
Experimental: Kinase enzyme binding activities of compounds disclosed herein may be determined using a proprietary assay which measures active site-directed competition binding to an immobilized ligand (Fabian, M. A. et al., Nature Biotechnol., 2005, 23:329-336). These assays may be conducted by DiscoverX (formerly Ambit; San Diego, Calif.). The percentage inhibition produced by incubation with a test compound may be calculated relative to the non-inhibited control.

PBMCs [2] = test: (c) IL-2 and IFN gamma release in CD3/CD28 stimulated PBMC cells; format: cell-based; settings: Homo sapiens, read-out: IC50 for Inhibition of Cytokine Release, IFNγ
Experimental: PBMCs from healthy subjects are separated from whole blood using a density gradient (Lymphoprep, Axis-Shield Healthcare). Cells are added to a 96 well plate pre-coated with a mixture of CD3/CD28 monoclonal antibodies (0.3 ug/ml eBioscience and 3 ug/ml BD Pharmingen respectively). Compound at the desired concentration is then added to the wells and the plate left for 3 days under normal tissue culture conditions. […] The IC50 is determined from the dose response curve.

[3] = Hepatic microsomal stability, dog; format: in vitro ADME; settings: pooled liver microsomes, read-out: Mean intrinsic clearance
Experimental: as §1, §2

PBMCs [4] = test: (i) Cell mitosis assay in PBMCs; format: cell-based; settings: Homo sapiens, PBMC, 5 μg/mL
Experimental: PBMCs from healthy subjects are separated from whole blood (Quintiles, London, UK) using a density gradient (Histopaque®-1077, Sigma-Aldrich, Poole, UK). The PBMCs (3 million cells per sample) are subsequently treated with 2% PHA (Sigma-Aldrich, Poole, UK) for 48 hr, followed by a 20 hr exposure to varying concentrations of test compounds. At 2 hr before collection, PBMCs are treated with demecolcine (0.1 μg/mL; Invitrogen, Paisley, UK) to arrest cells in metaphase. […] Fluorescence is observed using an ATTUNE flow cytometer (Invitrogen, Paisley, UK), gating for lymphocytes.

[5] = tested on: 71 receptors and 26 enzymes; test: Cerep Diversity Profile; format: binding; settings: 300 nM; any of 71 receptors and 26 enzymes

Sequence of B-Raf (V600e) (P15056 whole entry V600E): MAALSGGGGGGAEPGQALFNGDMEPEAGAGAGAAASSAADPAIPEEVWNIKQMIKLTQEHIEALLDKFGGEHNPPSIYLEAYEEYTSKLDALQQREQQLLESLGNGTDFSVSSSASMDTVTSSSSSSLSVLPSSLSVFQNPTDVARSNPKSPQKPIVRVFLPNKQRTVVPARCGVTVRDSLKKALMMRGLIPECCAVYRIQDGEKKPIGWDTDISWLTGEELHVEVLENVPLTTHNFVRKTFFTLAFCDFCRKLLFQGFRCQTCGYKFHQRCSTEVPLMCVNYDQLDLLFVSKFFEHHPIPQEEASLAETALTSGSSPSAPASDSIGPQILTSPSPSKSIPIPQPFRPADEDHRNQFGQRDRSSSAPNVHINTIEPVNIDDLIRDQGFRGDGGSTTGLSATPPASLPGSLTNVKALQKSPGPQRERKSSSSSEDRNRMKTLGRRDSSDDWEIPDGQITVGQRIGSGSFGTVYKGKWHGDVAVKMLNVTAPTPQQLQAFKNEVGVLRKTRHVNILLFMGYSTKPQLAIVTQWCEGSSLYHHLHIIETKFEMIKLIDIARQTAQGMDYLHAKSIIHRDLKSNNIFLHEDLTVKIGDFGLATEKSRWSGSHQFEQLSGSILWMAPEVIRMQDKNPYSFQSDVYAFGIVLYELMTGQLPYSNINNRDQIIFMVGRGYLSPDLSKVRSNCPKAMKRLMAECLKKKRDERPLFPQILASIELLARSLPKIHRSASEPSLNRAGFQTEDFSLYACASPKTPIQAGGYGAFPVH

- microsomal CLint at 0.1 μM [1]: 445 µL/min/mg
- effect on the binding of B-Raf (V600e) to its standard ligand (B-Raf (V600e)): did not have any effect
- microsomal CLint at 0.1 μM [3]: > 554 µL/min/mg
- inhibition of the control specific binding in the receptor binding assays or enzyme assays [5]: less than 25%
Structure (SMILES): C#Cc1cc(Nc2nccc(Oc3ccc(NC(=O)Nc4cc(C(C)(C)C)nn4-c4ccc(C)cc4)c4ccccc34)n2)cc(C(=O)NCCOCCOCCOC)c1 [Example 2, 3-((4-((4-(3-(3-(tert-Butyl)-1-(p-tolyl)-1H-pyrazol-5-yl)ureido)naphthalen-1-yl)oxy)pyrimidin-2-yl)amino)-5-ethynyl-N-(2-(2-(2-methoxyethoxy)ethoxy)ethyl)-benzamide]
- % β-catenin induction (β-catenin; 1 μg/mL): 0%
- % β-catenin induction (β-catenin; 5 μg/mL): 2%
- % β-catenin induction (β-catenin; 10 μg/mL): 0%
- pIC50 (PBMCs [2]): 8.60
- inhibition at 5 µg/mL (PBMCs [4]): 18.7%
